Data taken from patent US10695399B2, “Peptides for prevention of HIV infection” (SYRACUSE UNIVERSITY, priority 2017, dated 2020).
Residues, ends and D or L forms follow the SMILES beside them. *: point of attachment. Dansyl = CN(C)c1cccc2c(S(=O)(=O)*)cccc12

What was measured:
[1] = Preliminary toxicity studies
[2] = biological target: T1, SEVI (aggregated semen enhancer of virus infection) (Homo sapiens, UniProt P15309); assay: Dansyl fluorescence binding study with SEVI
T1 construct: SEVI is the aggregated portion of the human protein that promotes infectivity
T1 sequence (P15309 248-286 limits assumed): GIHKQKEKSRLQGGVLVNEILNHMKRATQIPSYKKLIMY
Description: FIG. 1A is a graph of fluorescence spectra of a first dansylated peptide according to the present invention in a binding study with PAP and SEVI at a first concentration;
FIG. 1B is a graph of fluorescence spectra of the first dansylated peptide according to the present invention in a binding study with PAP and SEVI at a first concentration incubated for 24 hours;
FIG. 2A is a graph of fluorescence spectra of a first dansylated peptide according to the present invention in a binding study with PAP and SEVI at a second concentration; and
FIG. 2B is a graph of fluorescence spectra of a second dansylated peptide according to the present invention in a binding study with PAP and SEVI at a second concentration.
Dansyl is the fluorescent dye that is attached to peptides. A change in Dansyl fluorescence indicates change in the environment, i.e. binding. The physiological concentration of PAP and SEVI is 5 micromolar.

Row | SMILES | toxicity [1] | Kd [2] [µM]
1 | CC[C@H](C)[C@H](NC(=O)[C@H](CCC(=O)O)NC(=O)[C@H](CCC(N)=O)NC(=O)[C@@H](NC(=O)[C@@H](NC(=O)[C@H](CCC(=O)O)NC(=O)[C@H](CCC(=O)O)NC(=O)[C@H](Cc1ccccc1)NS(=O)(=O)c1cccc2c(N(C)C)cccc12)[C@@H](C)CC)C(C)C)C(=O)N[C@@H](CCC(=O)O)C(=O)N[C@@H](CC(=O)O)C(=O)N[C@@H](Cc1ccccc1)C(=O)N[C@@H](CC(C)C)C(=O)N[C@@H](CCC(=O)O)C(=O)N[C@@H](CC(N)=O)C(=O)N[C@@H](CC(C)C)C(=O)N[C@H](C(N)=O)C(C)C [Peptide 1, FEEIVQEIEDFLENLV] (Dansyl-FEEIVQEIEDFLENLV-NH2) | non-toxic | < 5
2 | CC[C@H](C)[C@H](NC(=O)CNS(=O)(=O)c1cccc2c(N(C)C)cccc12)C(=O)NCC(=O)N[C@@H](C)C(=O)N[C@H](C(=O)N[C@@H](CC(C)C)C(=O)N[C@@H](CCC(=O)O)C(=O)N[C@H](C(=O)N[C@@H](CC(C)C)C(=O)N[C@H](C(=O)N[C@H](C(=O)NCC(=O)N[C@@H](CC(C)C)C(=O)N1CCC[C@H]1C(=O)N[C@@H](C)C(=O)N[C@@H](CC(C)C)C(=O)N[C@H](C(=O)N[C@@H](CO)C(=O)N[C@@H](Cc1c[nH]c2ccccc12)C(=O)N[C@H](C(=O)N[C@@H](CCC(=O)O)C(=O)N[C@@H](CCC(=O)O)C(=O)N[C@@H](CCC(=O)O)C(=O)N[C@@H](CCC(=O)O)C(=O)N[C@@H](CCC(N)=O)C(=O)N[C@@H](CCC(N)=O)C(N)=O)[C@@H](C)CC)[C@@H](C)CC)[C@@H](C)O)[C@@H](C)O)C(C)C)C(C)C [Peptide 2] | non-toxic | 
